Results on 6 compounds are retold here after patent US20040248139A1, “Eit-6, a polypeptide encoded by an estrogen regulated gene” (priority 2001, published 2004).

Structures are written as SMILES.

The subject of data set [1] is EIT-6 mRNA in BT-474 cells. Description: Northern blot of EIT-6 mRNA, BT-474 cells. It counts as cell-based, human. As to the method: All the cell lines were obtained from the ATCC.
To determine if the induction of EIT-6 by estrogen is estrogen receptor-mediated, the effect of estrogen antagonists (4-hydroxy-tamoxifen and ICI 182,780) on EIT-6 mRNA levels was determined. BT-474 cells were cultured with […] (1 μM) or 4-hydroxy-tamoxifen (10 μM) for 6 hours prior to estrogen (10 nM) treatment for an additional 24 hours. […] There are multiple mechanisms by which estrogen can regulate the expression of EIT-6, e.g., (1) directly by transcriptional regulation, (2) directly by influencing mRNA stability, or (3) indirectly through other transcription factors/signaling pathways. […] To further investigate if EIT-6 is a direct or indirect target of estrogen receptors, EIT-6 mRNA levels were measured following estrogen treatment BT-474 cells in the presence of a protein synthesis inhibitor (cycloheximide) (FIG. 2B). The cells were treated with cycloheximide (10 μg/ml) for 16 hours in the presence or absence of estrogen.

In data set [2] the test system is prolyl hydroxylase enzymes. Particulars: literature, compared with P2,5D where stated; cited from earlier work.
For data set [3], the system named is putative estrogen responsive elements (ERE) in HepG2 cells. Put plainly: Luciferase reporter assay, ERE concatamer constructs with estrogen receptor α in HepG2 cells.
Method: The cells were transfected using FuGene 6 (Roche, Basel, Switzerland) and treated with estrogen the day after transfection. On the day following estrogen treatment luciferase activity was determined using a luciferase assay system (Promega, Madison, Wis.). […] To determine whether these putative EREs could confer estrogen responsiveness, various constructs containing concatemers of each of these elements (in a variety of combinations) up-stream of a luciferase gene were generated (FIG. 2D). These concatamer constructs were generated by subcloning concatamers of PCR-derived fragments (of the EIT-6 promoter region) containing the putative ERE's into pBR-pl-TATA-luc [Polyak et al. (1997) Nature 389:300-305]. Luciferase and β-galactosidase activity was measured following transient co-transfection of these constructs with the estrogen receptor α-encoding construct (referred to above) and a vector containing a β-galactosidase-encoding cDNA sequence under control of a constitutive (CMV) promoter into HepG2 cells as described above and the values of luciferase activity were normalized for transfection efficiency by calculating ratios of luciferase activity to β-galactosidase activity which was measured using the Aurora GAL-XE reporter gene assay (ICN, Costa Mesa, Calif.). “Fold induction” was calculated according to the following formula:
Fold induction=(luciferase activity in estrogen treated cells÷βgalactosidase activity in estrogen treated cells)÷(luciferase activity in control cells÷βgalactosidase activity in control cells).
The test system of data set [4] is ZR75-1 breast cancer cells. Put plainly: SAGE (serial analysis of gene expression) after estrogen or tamoxifen treatment. As to conditions: 10 nM estradiol, 16 h. It counts as cell-based, human. From the text:
(§1) In order to identify genes involved in the response of breast cancer cells to estrogen and tamoxifen, SAGE libraries were generated from an estrogen- dependent human breast cancer cell line (ZR75-1; obtained from the American type Culture Collection (ATTC), Manassas, VA) prior to and following estrogen or tamoxifen treatment. SAGE facilitated the determination of the absolute abundance of thousands of different mRNAs simultaneously in a comprehensive and unbiased way and to detect even slight differences in expression levels between samples [Velculescu et al. (1995) Science 270: 484-487; Polyak et al. (1997) Nature 389:300-305; Lal et al. (1999) Cancer Res. 59:5403-5607; Velculescu et al. (1999) Nature Genetics 23:387-388]. ZR75-1 cells cultured in the absence of steroid hormones (i.e., in phenol red-free culture medium containing charcoal-treated fetal bovine serum (FBS) (5%)) for seven days were split into three aliquots which were then cultured in fresh steroid-free medium containing no additive, 10 nM estradiol, or 10 μM 4-hydroxy-tamoxifen. Cells were harvested from the cultures after sixteen hours and response to the hormone treatment was confirmed by FACS analysis of cell cycle progression and by Northern blot analysis to test for the expression of known estrogen target genes.
SAGE libraries from untreated, estrogen-treated and tamoxifen-treated ZR75-1 cells were generated using a modified micro-SAGE protocol [Porter et al. (2001) Cancer Res. 61: 5697-5702]. From the three SAGE libraries 140,638 tags were obtained, approximately 45,000 from each library. Hierarchical clustering was applied to data using the Auster program developed by Eisen et al. [(1998) Proc. Natl. Acad. Sci. USA. 95: 14863-14868]. Data was log-transformed and filtered for at least 1 observations abs Val 5 and Maxval-Minval >5. Using these settings 2,818 genes (out of 16,808 total) were included in the analysis that led to the identification of several estrogen- and/or tamoxifen-induced transcripts. […] Linking the UniGene database to the SAGE data identified the cDNAs corresponding to the SAGE tags in most of the cases (Table 1). Genes were named according to their relative abundance in the three SAGE libraries: EIT (Estrogen Induced Tag)-induced by estrogen; TIT (Tamoxifen Induced Tag)-induced by tamoxifen; and DET (Differently Expressed Tag)-differently expressed following estrogen or tamoxifen treatment.

The next data set concerns EIT-6 promoter region. Particulars: ~5.5 kb EIT-6 promoter construct co-transfected with estrogen receptor α.
Data set [5] deals with EIT-6 mRNA in ZR75-1 cells. Put plainly: Northern blot of EIT-6 mRNA, ZR75-1 cells. In kind it is cell-based, human. From the text: To confirm the result of the SAGE experiment, probes corresponding to some of the cDNA clones were generated and the induction of the relevant genes was confirmed by Northern blot analysis (FIG. 1A) performed as previously described [Polyak et al. (1997)]. Of the twenty estrogen- or tamoxifen-induced genes (Table 1), only one (EIT-10;cathepsin D) had previously been implicated as a target of ER-transcriptional activation and three had not previously been described at all. In most cases the sequences of the relevant genes provided important clues as to their potential functions (Table 1). Several of the genes are predicted to be involved in the regulation of cell proliferation and/or survival. […]

In data set [6] the test system is T47D ER+ breast cancer cells. Description: Colony assay, T47D cells. In kind it is cell-based, human. Particulars: control pCEP4 and EIT-6 transfected cells, charcoal/dextran treated FBS, estrogen 10 nM.
Method: In order to test whether EIT-6 expresssion influences cell proliferation and/or survival, colony assays were performed. […] T47D ER+breast cancer cells were transfected with a control construct (pCEP4) or the pCEP4-EIT6 construct. Stable transfectants were selected by culturing the cells in the presence of hygromycin for two weeks after which colonies were visualized by crystal violet staining. […] The number of colonies per cm^2 was determined by spot-densitometry-assisted counting using a MultiImage Lightbox (Alfa Innotech, San Leandro, Calif.). Two flasks per experimental group and two independent areas in each flask were analyzed.
To test if expression of EIT-6 can confer estrogen independent growth, ER+and estrogen dependent T47D breast cancer cells were transfected with control pCEP4 or pCEP4-EIT6 constructs. Stable transfectants were selected by culturing the cells in phenol red-free medium supplemented with charcoal/dextran treated (and thus steroid hormone depleted) FBS (5%) and hygromycin. Half the flasks contained estrogen (10 nM). After two weeks of dry selection, colonies were visualized by crystal violet staining and counted as described above.
For another data set, the system named is ZR75-1 cells. Description: FACS analysis of cell cycle progression. It counts as cell-based, human. As to conditions: steroid-deprived ZR75-1 cells; 10 nM estradiol or 10 μM 4-hydroxy-tamoxifen, 16 h.
Text: as §1
For orientation: In flow cytometry, cells or beads pass a laser one at a time.

Setting [7] is: BT-474, 16 h, cycloheximide 10 μg/ml.

Method for EIT-6 promoter region: To further characterize the mechanism by which the estrogen receptor induces EIT-6, a fragment of the proximal EIT-6 promoter was tested for its ability to confer estrogen responsiveness on a luciferase reporter gene. The luciferase construct was generated by subcloning a BAC (bacterial artificial chromosome)-derived fragment of EIT-6 promoter region (approximately 5.5 kb in length) into pBR-pl-luc [Polyak et al. (1997)]. The cells were transfected using FuGene 6 (Roche, Basel, Switzerland) and treated with estrogen the day after transfection. On the day following estrogen treatment luciferase activity was determined using a luciferase assay system (Promega, Madison, Wis.). […] Luciferase and β-galactosidase activity was measured following transient co-transfection of these constructs with the estrogen receptor α-encoding construct (referred to above) and a vector containing a β-galactosidase-encoding cDNA sequence under control of a constitutive (CMV) promoter into HepG2 cells as described above and the values of luciferase activity were normalized for transfection efficiency by calculating ratios of luciferase activity to β-galactosidase activity which was measured using the Aurora GAL-XE reporter gene assay (ICN, Costa Mesa, Calif.). “Fold induction” was calculated according to the following formula:

As for `C[C@]12CC[C@@H]3c4ccc(O)cc4C[C@@H](CCCCCCCCC[S+]([O-])CCCC(F)(F)C(F)(F)F)[C@H]3[C@@H]1CC[C@@H]2O` (stereo partly shown) [ICI 182,780], the “abolition of estrogen induction of EIT-6 mRNA” value in data set [1] (BT-474, antagonist (ICI 1 μM or 4-hydroxy-tamoxifen 10 μM) 6 h before estrogen 10 nM for 24 h) is listed as “completely”.
In the case of `C[C@@H](NC(=O)C(=O)O)C(=O)O` [N-oxalyl-2R-alanine], the “inhibition of prolyl hydroxylase” value in data set [2] was “not”.
For `C[C@H](NC(=O)C(=O)O)C(=O)O` [N-oxalyl-2S-alanine], in data set [2], the “inhibition of prolyl hydroxylase” value was “Inhibitory”.
Take `O=C(O)CNC(=O)C(=O)O` [N-oxalylglycine]: in data set [2], the “inhibition of prolyl hydroxylase” value is given as “Inhibitory”.
As to `C[C@@H]1C[C@@H]([C@H](O)CC2CC(=O)NC(=O)C2)C(=O)[C@@H](C)C1` [cycloheximide], the “EIT-6 mRNA levels, separate treatment” value in data set [1] (setting [7]) is reported as “modestly increased”.
Consider `C[C@]12CC[C@@H]3c4ccc(O)cc4CC[C@H]3[C@@H]1CC[C@@H]2O` [estrogen, estradiol], for which the “fold induction of luciferase by estrogen” value in data set [3] (E4 construct (3 copies of the E4 ERE), HepG2, normalized to β-galactosidase) was 4-5 fold; in data set [3] (VIT construct (two copies of vitellogenin consensus ERE), HepG2), 10-11 fold. Moreover, the “estrogen responsiveness of luciferase constructs” value in data set [3] (most of the putative ERE combinations, HepG2) was “relatively weak”. For the same compound, the “SAGE tags, E (estrogen-treated)” value in data set [4] (gene DET-1, untreated C = 4) is given as 15; in data set [4] (gene DET-2, untreated C = 3) it was 13; in data set [4] (gene DET-13, untreated C = 7), 1; in data set [4] (gene DET-14, untreated C = 4), 1; in data set [4] (gene DET-15 (USF2), untreated C = 11), 1; in data set [4] (gene DET-16, untreated C = 7), 0. In addition, the “SAGE tags, E (estrogen-treated)” value in data set [4] (gene DET-17 (SULT 1A), untreated C = 0) came out at 1; in data set [4] (gene EIT-1, untreated C = 1) it was 14; in data set [4] (gene EIT-2 (TIM17B), untreated C = 1), 14; in data set [4] (gene EIT-3, untreated C = 2), 19; in data set [4] (gene EIT-4, untreated C = 2), 18; in data set [4] (gene EIT-5, untreated C = 5), 27. The “SAGE tags, E (estrogen-treated)” value in data set [4] (gene EIT-6, untreated C = 5) was 26; in data set [4] (gene EIT-10 (Cathepsin D), untreated C = 112) it was 451; in data set [4] (gene TIT-1, untreated C = 0), 4; in data set [4] (gene TIT-2, untreated C = 0), 3; in data set [4] (gene TIT-3, untreated C = 8), 28; in data set [4] (gene TIT-4, untreated C = 7), 27. For the same compound, the “SAGE tags, E (estrogen-treated)” value in data set [4] (gene TIT-5, untreated C = 9) was determined as 19. Besides, the “EIT-6 mRNA levels, separate treatment” value in data set [1] (setting [7]) is on record as “modestly increased”. In data set [1] (BT-474, cycloheximide 10 μg/ml, 16 h), the “EIT-6 mRNA levels, estrogen in the presence of cycloheximide” value was “much stronger induction”. Moreover, the “induction of EIT-6 mRNA” value is on record as approximately 10 fold in data set [1] (BT-474 cells, Northern blot) and approximately 5 fold in data set [5]. In the data set on EIT-6 promoter region, the luciferase activity entry was “modest but reproducible induction”. For the same compound, the “colony numbers on addition of estrogen” value in data set [6] is on record as “increased colony numbers”. Besides, the S-phase entry entry in the data set on ZR75-1 cells is on record as “stimulated rapid S-phase entry”.
